# From patent US8741905B2, “Compounds and methods for treating autoimmune diseases” (The Broad Institute, Inc., priority 2010, dated 2014)
# Where two headings read alike, the source gives them in different places.
# Key:
# INS-1E cells [1] = experiment: Glucose-stimulated insulin secretion in cytokine-treated INS-1E cells; assay type: cell-based, rat; details: cytokines
# Experimental: INS-1E cells were seeded in 96-well plates at 20,000 cells per well and incubated for 48 h in 100 μL of fresh RPMI containing 1% FBS and the cytokine cocktail, in the presence or absence of compounds. Cells were washed and incubated for 2 h in KRBH (135 mM NaCl, 3.6 mM KCl, 5 mM NaHCO3, 0.5 mM NaH2PO4, 0.5 mM MgCl2, 1.5 mM CaCl2, 10 mM HEPES, pH 7.4, 0.1% BSA) without glucose. Cells were subsequently incubated with KRBH containing 2 or 15 mM glucose for 1 h. The supernatant was taken for measurement of released insulin, and 100 μL of acidified ethanol was added to each well for extraction and measurement of cellular insulin content. Insulin was measured with a rat insulin ELISA kit (Alpco).
# INS-1E cells [2] = experiment: Cellular ATP levels (CellTiter-Glo) in cytokine-treated INS-1E cells; suppression of cytokine-induced beta-cell apoptosis; assay type: cell-based, rat; details: Rattus norvegicus
# Experimental: The compounds were analyzed for activity utilizing methods described in Chou et al. (ACS Chem. Biol. 2010 Aug. 20; 5(8):729-34).
# INS-1E cells were seeded at 10,000 cells per well using a Multidrop Combi (Thermo Labsystems) in white optical 384-well plates (Corning Life Sciences). After overnight incubation, medium was removed and 50 μL of RPMI containing 1% FBS and a combination of cytokines (10 ng mL-^1 IL-1β, 50 ng mL^−1 IFN-γ, 25 ngmL^−1 TNF-α) was added to every well. Using libraries of compounds dissolved in DMSO and a CyBi-Well pin-transfer robot (CyBio Corp.), 0.1 μL of each compound was added. After 48 h, medium was removed and 20 μL of CellTiter-Glo reagent was added. Luminescence was measured after 10 min of incubation using an EnVision plate reader (PerkinElmer).
# Instrument output files were processed using Pipeline Pilot (Accelrys) and input to MATLAB (The MathWorks) for data normalization. Compound performance scores relative to a distribution of mock-treated (DMSO) wells were calculated using a revised version of the scoring system underlying ChemBank. (Seiler et al., Nucleic Acids Res. 36, D351-359, 2008). The role of replicate treatments was further developed as follows: first, mock-treatment distributions were modeled using all mock-treated wells measured on a single day, regardless of their nominal replicate; second, per-compound scores weighted each in-plate background-subtracted measurement by the uncertainty in that measurement, using the method of maximum likelihood. The uncertainty in a single background-subtracted measurement was estimated using the number of mock-treated wells on the plate and, as a measure of the assay noise, the standard deviation of the per-day mock-treatment distribution. The signal, a weighted average of differences, was scaled by the noise, the standard deviation of the mock treatment distribution.
# INS-1E cells were seeded at 10,000 cells/well using a Multidrop Combi (Thermo Labsystems) in white optical 384-well plates (Corning Life Sciences). After overnight incubation, medium was removed and 50 μL RPMI containing the treated compound, 1% FBS and a combination of cytokines (10 ng/mL IL-1β, 50 ng/mL IFN-γ, 25 ng/mL TNF-α) was added to every well. After incubation for 48 hr, medium was removed and 20 μL CellTiter-Glo reagent was added. Luminescence was measured after 10-min incubation using an EnVision plate reader (PerkinElmer).
smiles,measurement,setting,value
"C[C@@H]1CN([C@@H](C)CO)C(=O)c2cccc(NC(=O)Nc3cccc4ccccc34)c2O[C@H]1CN(C)S(=O)(=O)c1ccc2c(c1)OCCO2 [Compound 21A, N-(((2R,3R)-5-((S)-1-Hydroxypropan-2-yl)-3-methyl-10-(3-(naphthalen-1-yl)ureido)-6-oxo-3,4,5,6-tetrahydro-2H-benzo[b][1,5]oxazocin-2-yl)methyl)-N-methyl-2,3-dihydrobenzo-[b][1,4]dioxine-6-sulfonamide]",glucose-stimulated insulin secretion (GSIS),INS-1E cells [1],"restored glucose-stimulated insulin secretion (GSIS), showing improved beta-cell function, to nearly normal levels"
same,EC50,"INS-1E cells [2]; INS-1E, assay not named, read-out: EC50",770 nM
same,IC50,"INS-1E cells [2]; INS-1E, read-out: IC50, inhibition of cytokine-induced beta cell apoptosis",770 nM
same,EC50,"INS-1E cells [2]; INS-1E cells, cytokines IL-1β, IFN-γ, TNF-α, 48 h, CellTiter-Glo, read-out: CTG EC50 in HTS",> 100 nM
